# Reference: patent US6656905B1, “Cyclic tetrapeptide compound and use thereof” (Fujisawa Pharmaceutical Co., Ltd., priority 1998, dated 2003)
# Tests used:
# [1] = test system: murine lymphocyte blastogenesis induced by anti-CD3 antibody (splenic cells of Balb/c mice); test: Lymphocyte blastogenesis test (MTT dye reduction); type: cell-based; settings: for Inhibition (%): 72 hours
# Method: Effect on Lymphocyte Blastogenic Response
# The lymphocyte blastogenesis test was performed in microtiter plates with each well containing 1×10^5 splenic cells of Balb/c mice in 0.1 ml RPMI-1640 medium supplemented with 10% fetal bovine serum (FBS), […] 2-mercaptoethanol, penicillin (100 units/ml) and streptomycin (100 μg/ml), to which anti-CD3 antibody (2C11) (1 μg/ml) was added. The cells were incubated at 37° C. in a humidified atmosphere of 5% CO2 for 72 hours. After the culture period, suppressive activities of the test samples in lymphocyte blastogenesis were quantified by an MTT [3-(4,5-dimethylthiazol-2-yl)-2,5-diphenyl-2H-tetrazolium bromide (MTT)] dye reduction assay.
# WF27082 B was dissolved in methanol and further diluted in RPMI-1640 medium and added to the culture to give final concentrations of 50 ng/ml or less. FR235220 was dissolved in methanol and further diluted in RPMI-1640 medium and added to the culture to give final concentrations of 500 ng/ml or less. The results are shown in Table 2 and Table 3, respectively.
# [2] = test system: partially purified human histone deacetylase; test: Activity of partially purified human histone deacetylase ([3H]acetyl histone assay); type: biochemical; settings: for Effect on histone deacetylase activity (in words): summary of Table 5
# Method: Effect on Activity of Partially Purified Human Histone Deacetylase
# The partial purification of human histone deacetylase, the preparation of [^3H] acetyl histones, and the assay for histone deacetylase activity were basically performed according to the method as proposed by Yoshida et al. as follows.
# Partial Purification of Human Histone Deacetylase—The human histone deacetylase was partially purified from human T cell leukemia Jurkat cells. Jurkat cells (5×10^8cells) were suspended in 40 ml of the HDA buffer consisting of 15 mM potassium phosphate, pH 7.5, 5% glycerol and 0.2 mM EDTA. After homogenization, nuclei were collected by centrifugation (35,000 ×g, 10 min) and homogenized in 20 ml of the same buffer supplemented with 1 M (NH4)2SO4. The viscous homogenate was sonicated and clarified by centrifugation (35,000 ×g, 10 min), and the deacetylase was precipitated by raising the concentration of (NH4)2SO4 to 3.5 M. The precipitated protein was dissolved in 10 ml of the HDA buffer and dialyzed against 4 liters of the same buffer. The dialyzate was then loaded onto a DEAE-cellulose (Whatman DE52) column (25×85 mm) equilibrated with the same buffer and eluted with a linear gradient (0-0.6 M) of NaCl (300 ml). A single peak fraction of histone deacetylase activity was eluted between 0.3 and 0.4 M NaCl.
# Preparation of [^3H] Acetyl Histones—To obtain [^3H]acetyl-labeled histones as the substrate for the histone deacetylase assay, 1×10^8 cells of Jurkat in 20 ml of RPMI-1640 medium supplemented with 10% FBS, penicillin (50 units/ml) and streptomycin (50 μg/ml) were incubated with 300 MBq [^3H] sodium acetate in the presence of […] sodium butyrate for 30 min in 5% CO2-95% air atmosphere at 37° C. in a 75 cm2 flask, harvested into a centrifuge tube (50 ml), collected by centrifugation at 1000 rpm for 10 min, and washed once with phosphate-buffered saline. The washed cells were suspended in 15 ml of ice-cold lysis buffer (10 mM Tris-HCl, 50 mM sodium bisulfite, 1% Triton X-100, 10 mM MgCl2, 8.6% sucrose, pH 6.5). After Dounce homogenization (30 stroke), the nuclei were collected by centrifugation at 1000 rpm for 10 min, washed three times with 15 ml of the lysis buffer, and once with 15 ml of ice-old washing buffer (10 mM Tris-HCl, 13 mM EDTA, pH 7.4) successively. The pellet was suspended in 6 ml of ice-cold water using a mixer, and […] of H2SO4 was added to the suspension to give a concentration of 0.4 N. After incubation at 4° C. for 1 hour, the suspension was centrifuged for 5 min at 15,000 rpm, and the supernatant was taken and mixed with 60 ml of acetone. After overnight incubation at −20° C., the coagulated material was collected by microcentrifugation, air-dried, and stored at […].
# Assay for Histone Deacetylase Activity—For the standard assay, 10 μl of [^3H]acetyl-labeled histones was added to 90 μl of the enzyme fraction, and the mixture was incubated at 25° C. for 30 min. The reaction was stopped by addition of 10 μl of HCl. The released [^3H]acetic acid was extracted with 1 ml of ethyl acetate, and 0.9 ml of the solvent layer was taken into 10 ml of toluene scintillation solution for determination of radioactivity.
# [3] = Solubility in solvents (physico-chemical properties); type: physicochemical; settings: solvents in which soluble
Inhibition (%) ([2]; 1 ng/ml),Inhibition (%) ([2]; 10 ng/ml),Inhibition (%) ([2]; 100 ng/ml),Inhibition (%) ([2]; 1000 ng/ml),Effect on histone deacetylase activity (in words) [2],SMILES,Inhibition (%) ([1]; 4 ng/ml),Inhibition (%) ([1]; 8 ng/ml),Inhibition (%) ([1]; 16 ng/ml),Inhibition (%) ([1]; 31 ng/ml),Inhibition (%) ([1]; 63 ng/ml),Inhibition (%) ([1]; 125 ng/ml),Inhibition (%) ([1]; 250 ng/ml),Inhibition (%) ([1]; 500 ng/ml),Effect on murine lymphocyte blastogenesis (in words) ([1]; summary of Tables 2 and 3),Solubility: Soluble [3]
−13.1,33.7,74.6,94.6,potently inhibited,CC(O)C(=O)CCCCCC1NC(=O)C2CCCN2C(=O)C(Cc2ccccc2)NC(=O)C(C)(C)NC1=O (centres unmarked) [FR235220],−23.4,−1.3,45.1,106.0,125.3,127.2,126.0,126.0,suppressed murine lymphocyte blastogenesis induced by anti-CD3 antibody in a dose-dependent manner,
11.4,36.5,74.1,91.7,potently inhibited,CC1CC2C(=O)NC(CCCCCC(=O)C(C)O)C(=O)NC(C)(C)C(=O)NC(Cc3ccccc3)C(=O)N2C1 (centres unmarked) [WF27082 F],,,,,,,,,,"methanol, chloroform, ethyl acetate, dimethyl sulfoxide"

SMILES,Inhibition (%) ([2]; 1 ng/ml),Inhibition (%) ([2]; 10 ng/ml),Inhibition (%) ([2]; 100 ng/ml),Inhibition (%) ([2]; 1000 ng/ml),Effect on histone deacetylase activity (in words) [2],Inhibition (%) ([1]; 4 ng/ml),Inhibition (%) ([1]; 8 ng/ml),Inhibition (%) ([1]; 16 ng/ml),Inhibition (%) ([1]; 31 ng/ml),Inhibition (%) ([1]; 63 ng/ml),Inhibition (%) ([1]; 125 ng/ml),Inhibition (%) ([1]; 250 ng/ml),Inhibition (%) ([1]; 500 ng/ml),Effect on murine lymphocyte blastogenesis (in words) ([1]; summary of Tables 2 and 3),Solubility: Soluble [3]
CCC1(C)NC(=O)C(CCCCCC(=O)C(C)O)NC(=O)C2CCCN2C(=O)C(Cc2ccccc2)NC1=O (centres unmarked) [WF27082 E],11.1,57.6,88.5,104.9,potently inhibited,,,,,,,,,,"methanol, chloroform, ethyl acetate, dimethyl sulfoxide"
